Entries after “also recorded” stand apart in the source; their conditions may differ. Read-outs that look alike come from different tables or passages of the source.
Experiments:
[1] = system: adenosine deaminase; assay: Deamination by adenosine deaminase in vitro and in vivo; assay type: in vitro ADME
Description: Inhibition of DNA polymerase is considered to be responsible for the biologic activity of AraA. The levels of F-AraATP attainable in leukemia L1210 cells in mice from the administration of 2-F-AraA are much higher than the level of AraATP atainable in these cells after administration of AraA. As a result of the maintenance of these levels of the inhibitor, F-AraATP, in them, the leukemia cells are effectively destroyed in animals. […] 2-F-AraA was also active against leukemia L1210 when administered by the oral route.
(§1) It has been noted that the antitumor activity of the parent compound, 9-β-D-arabinofuranosyladenine (AraA), is enhanced by inhibition of adenosine deaminase and inhibition of DNA synthesis in tumor cells by AraA also is enhanced by concurrent inhibition of adenosine deaminase. […] This observation that 2-fluoroadenosine is not such a substrate for adenosine deaminase led to the synthesis of 9-β-D-arabinofuranosyl-2-fluoroadenine (2-F-AraA). […] The intracellular concentration of 2-F-AraATP in L1210 cells was 45, 156 and 220 nanomoles per 10^9 cells three hours after intraperitoneal treatment with 80, 150 and 400 mg/kg of 2-F-AraA.

[2] = system: P388 leukemia; assay: Therapeutic activity against P388 leukemia in mice; assay type: in vivo; conditions: for % increase in median life span: days 1,5,9 after implant of 10^6 cells
Experimental: (§2) Relative to activity against leukemia and antiviral activity, the following summation was found: Levels of F-AraATP in acid-soluble extracts prepared from L1210 and P388 leukemia cells in mice treated with 2-F-AraA (80 mg/kg) were determined by HPLC. […] Inhibition of DNA synthesis by 2-F-AraA (80 mg/kg) in L1210 and P388 leukemia cells in vivo was pronounced for 7 hours after treatment. […] 2-F-AraA was effective against P388 leukemia; % increase in median life span of mice treated with 80 and 52 mg/kg (q3hrsx8; days 1,5,9 after implant of 10^6 cells) was 170% and 150%.

[3] = system: L1210 cells; assay: Intracellular 2-F-AraATP levels in L1210 cells of treated mice; assay type: in vivo; conditions: for level of F-AraATP in acid-soluble extracts (HPLC): L1210 cells, 80 mg/kg
Description: as §1, §2

[4] = system: P388 leukemia cells; assay: F-AraATP levels in P388 leukemia cells of treated mice (HPLC); assay type: in vivo; conditions: 80 mg/kg
Experimental: as §2

[5] = system: L1210 cells; assay: Macromolecular synthesis in L1210 cells in culture (radiolabel incorporation); assay type: cell-based; conditions: for activity at 1 µg/mL / activity at 3 µg/mL / activity at 10 µg/mL / inhibition at 10 µg/mL: Mus musculus, L1210; for activity at 1 µg/mL: 1.0 μg/ml; for activity at 3 µg/mL: 3.0 μg/ml; for activity at 10 µg/mL: 10.0 μg/ml
Experimental: ^a Inhibitor was added to L1210 cells growing in culture; radioactive
substrate was added 30 min. later.
hrs after addition of radioactive substrate to culture medium.
^b Incorporation of [C^3 H3 thymidine or [5^3 Huridine
^c Incorporation of [5^3 Huridine into RNA.
^d Incorporation of [4,5^3 HL-leucine into protein.

[6] = system: L1210 cells; assay: DNA synthesis in L1210 cells in vivo; design: species or system mice; conditions: 80 mg/kg, for 7 hours after treatment
Experimental: Protein synthesis was less affected and RNA synthesis was not inhibited under the same experimental conditions.
as §2

[7] = system: P388 leukemia cells; assay: DNA synthesis in P388 leukemia cells in vivo; design: species or system mice; conditions: 80 mg/kg, for 7 hours after treatment
Experimental: as §2

[8] = system: Herpes Simplex Virus Type 1; assay: In vitro antiviral activity, Virus Rating; assay type: cell-based
[9] = system: Vaccinia Virus; assay type: cell-based
[10] = system: Human Cytomegalovirus; assay: In vitro antiviral activity, Virus Rating; assay type: cell-based; conditions: average VR adjusted for number of Microtiter wells; VR ≤0.5 no significant activity
Description: (§3) *Virus Rating (VR): A weighted measurement of antiviral activity which
(§4) takes into account the degree of virusspecific cytopathogenic effect
(§5) (cpe)inhibition, toxicity, and virus concentration, as determined by a
(§6) modification of the methods of Ehrlich et al. (Ann. N.Y. Acad. Sci. 140:7
(§7) 1965). In our experience, a VR≥1.0 indicates definite antiviral
(§8) activity; a VR of 0.5-0.9 indicates moderate antiviral activity; and a VR
(§9) ≤0.5 indicates no significant antiviral activity.
(§10) ^+ Average VR adjusted for number of Microtiter wells employed.

[11] = system: Parainfluenza Virus Type 3; assay: In vitro antiviral activity, Virus Rating; assay type: cell-based; conditions: average VR adjusted for number of Microtiter wells; VR ≤0.5 no significant activity
Description: as §3, §4, §5, §6, §7, §8, §9, §10

[12] = system: Rhinovirus Type 1A; assay: In vitro antiviral activity, Virus Rating; assay type: cell-based; conditions: average VR adjusted for number of Microtiter wells; VR ≤0.5 no significant activity
Description: as §3, §4, §5, §6, §7, §8, §9, §10

[13] = read-out: DNA synthesis, TdR-3H incorporation, Treated as % of Control
[14] = read-out: DNA synthesis, UR-3H incorporation, Treated as % of Control
[15] = read-out: Protein synthesis, Leu-3H incorporation, Treated as % of Control
[16] = read-out: RNA synthesis, UR-3H incorporation, Treated as % of Control
[17] = same experimental conditions as Table 1
[18] = average VR adjusted for number of Microtiter wells, VR≥1.0 definite activity

`Nc1nc(F)nc2c1ncn2[C@@H]1O[C@H](CO)[C@@H](O)[C@@H]1O` [2-F-AraA, 9-β-D-arabinofuranosyl-2-fluoroadenine] was tested, and the “deamination by adenosine deaminase” value [1] was “not a substrate for adenosine deaminase; also recorded: not deaminated; also recorded: completely resistant to deamination”, the “% increase in median life span” value ([2]; 52 mg/kg q3hrsx8) was 150% and the “% increase in median life span” value ([2]; 80 mg/kg q3hrsx8) was 170%. For the same molecule, the “activity against P388 leukemia in mice” value ([2]; mouse, in vivo) was “effective; also recorded: active”, the “2-F-AraATP in L1210 cells” value ([3]; 9 and 18 hours after a single dose of 80 and 150 mg/kg) was “not found” and the “2-F-AraATP in L1210 cells” value ([3]; 18 hours after a dose of 400 mg/kg) was “significant levels were present”. The “intracellular pools of 2-F-AraATP in L1210 cells” value ([3]; BDFl mice treated with 2-F-AraA alone, versus AraATP from AraA plus adenosine deaminase inhibitor) was “comparable”, the “level of F-AraATP in acid-soluble extracts (HPLC)” value (from here on “level of F-AraATP”) ([3]; 1 to 6 hours after treatment) was 30-50 nmoles/gm cells and the “level of F-AraATP” value ([3]; 9 hours after treatment) was “none was detected”. The “levels of F-AraATP attainable in leukemia L1210 cells in mice, compared with AraATP after AraA” value ([3]; after administration of 2-F-AraA) was “much higher”, the “level of F-AraATP” value ([4]; 1 to 6 hours after treatment) was 30-50 nmoles/gm cells and the “level of F-AraATP” value ([4]; 9 hours after treatment) was “none was detected”. For the same molecule, the “DNA synthesis in L1210 cells in culture” value [5] was “inhibited DNA synthesis”, the “inhibition of RNA synthesis” value ([5]; 10 μg/ml) was “generally not inhibited” and the activity at 1 µg/mL [5, 13] was 102%. It also gave an activity at 1 µg/mL [5, 14] of 84%, an activity at 1 µg/mL [5, 15] of 119% and an activity at 1 µg/mL [5, 16] of 135%. For the same molecule, the activity at 3 µg/mL [5, 13] was 49%, the activity at 3 µg/mL [5, 14] was 36% and the activity at 3 µg/mL [5, 15] was 86%. The activity at 3 µg/mL [5, 16] was 163%, the activity at 10 µg/mL [5, 13] was 18% and the activity at 10 µg/mL [5, 14] was 11%. The activity at 10 µg/mL [5, 15] was 66%, the activity at 10 µg/mL [5, 16] was 137% and the inhibition at 10 µg/mL ([5]; 10 μg/ml, read-out: inhibition of DNA synthesis) was 90%. The inhibition at 10 µg/mL ([5]; 10 μg/ml, read-out: inhibition of protein synthesis) was 30%, the “Protein synthesis in L1210 cells in culture” value [5, 17] was “less affected” and the “RNA synthesis in L1210 cells in culture” value [5, 17] was “not inhibited”. For the same molecule, the “inhibition of DNA synthesis in vivo” value [6] was “pronounced”, the “inhibition of DNA synthesis in vivo” value [7] was “pronounced” and the “activity against the virus” value [8] was “demonstrated activity”. For the same molecule, the “Virus Rating (VR)” value [8, 18] was 1.4, the “Virus Rating (VR)” value [9, 18] was 1.3 and the “activity against the virus” value ([9]; grown in H.Ep.-2 cells in culture) was “demonstrated activity”. The “Virus Rating (VR)” value [10] was 0.3, the “Virus Rating (VR)” value [11] was 0 and the “Virus Rating (VR)” value [12] was 0.

From US4188378A, “Anticancer and antiviral activity of 9-β-D-arabinofuranosyl-2-fluoroadenine” (The United States of America as represented by the …, priority 1978, dated 1980)
